How the values were obtained:
liver fibrosis = assay: Carbon tetrachloride liver fibrosis mouse model (hydroxyproline analysis); type: in vivo; settings: D30, versus carbon tetrachloride mice without intervention
Protocol: In order to determine if PLCs have a beneficial effect in treating liver fibrosis, fibrosis was initiated with 3× weekly application of 0.1 mL/kg injection of carbon tetrachloride diluted in corn oil for 2 weeks; control mice received corn oil itself for those 2 weeks. Carbon tetrachloride applications continued throughout the next step. Mice that received carbon tetrachloride were separated into 3 cohorts at the two-week mark: • 1. Plasmalyte application on D15, 22, 29 (Carbon Tet mice) • 2. rHGF diluted to 30 ug/mL in plasmalyte and dosed daily at 0.3 mg/kg (Peprotech HGF 100-39H-1 mg) • 3. PLC applications of ˜3e10 Platelet Equivalency Units (PEUs)/kg per mouse on D15, 22, 29. D15 was 5e10, D22 was 3e10, D29 was 5e10.
All mice were sacrificed on D30, livers were excised, and fresh frozen for ˜2-3 hours. Hydroxyproline analysis was done using a hydroxyproline kit (Abcam #ab222941).
Briefly, livers were trimmed, weighed, and the homogenized in DI water at ˜10 uL water/mg of liver with a Dounce homogenizer. The equivalent of 10 mg (˜100 uL) were removed and digested in equal volume 10N NaOH for 2 hours at 120° C. Samples were cooled and quenched with 100 uL 10N HCl, vortexed, and then spun in a centrifuge for 5 mins at 10,000×g. […] Samples were then processed as the manufacturer directed and analyzed with a plate reader. […]

[1] = In vivo localization of PLCs/HGF-ePLCs in fibrotic mice; set-up: species or system Immune-deficient mice (NSG); settings: 30 mins after treatment
Protocol: Immune-deficient mice (NSG) were dosed with 0.25 mL/kg of carbon tetrachloride 3 times per week for 2 weeks to initiate liver fibrosis. Control mice were treated with similar volumes of corn oil. On D15, fibrotic mice were treated with the following: Plasmalyte, recombinant HGF (Peprotech Cat #100-39H-1 mg), PLCs that had been generated the previous day and diluted in plasmalyte, or HGF-ePLCs that had been generated the previous day and diluted in plasmalyte. Treatments were allowed to circulate for 30 mins and then mice were sacrificed, exsanguinated, and livers were prepared and frozen for analysis.
FIG. 32B examines circulating PLCs in blood. Blood from PLC or ePLC treatment mice was analyzed via flow cytometry with a human-specific CD61 antibody (Miltenyi Cat #130-110-754) as an indicator of circulating PLCs/ePLCs. […] In FIG. 32C, fluorescence staining of livers removed from treated fibrotic mice for HGF were performed. Livers were embedded in OCT, sectioned, and mounted on slides. Sections were then fixed in ice-cold Acetone for 10 mins and dried for an additional 20 mins. […] The results shown in FIG. 32D show fluorescence staining of livers removed from treated fibrotic mice for CD61. […]

Question: Which “collagen per weight of liver” value (liver fibrosis) does the source give for “HGF: recombinant HGF (Peprotech HGF 100-39H-1 mg)” here?
Answer: The value was “apparent reduction of collagen per weight of liver”.

Question: And the “HGF signal in liver (fluorescence staining)” value [1]?
Answer: Its value is “increase HGF signal”.
